From patent US11993821B2, “Co-crystallized sweeteners” (FIRMENICH SA, priority 2012, dated 2024) come the findings set out here.

This data set is described as follows: Dissolution measurements (Distek 2100B USP 2 dissolution system, UV/Vis probe at 324 nm). The conditions noted are these: 1 L deionized water, 200 rpm, amount for 20 ppm Compound I. The format is physicochemical. How it is done: Dissolution Measurements: The performance of the sucrose/Compound I co-crystallized product was compared to that of the Compound I starting material and sucrose/Compound I powder mixtures under standard conditions using a Distek 2100B USP 2 dissolution system. Sufficient amounts of each sample were added in order to create 20 ppm solutions of Compound I. These amounts were 20 mg of pure Compound I, 200 mg of the 10% mixtures, 400 mg of the 5% mixtures and 2.00 g of the 1% mixtures in 1 L of deionized water. A stirring rate of 200 rpm was used.
The concentration of Compound I in solution was monitored continuously as a function of time using a UV/Vis spectrometer probe which measured absorbance at 324 nm.

For `CCCNC(=O)C(C)(C)COc1cccc2c1C(N)=NS(=O)(=O)N2` [100% Compound I, 3-(4-amino-2,2-dioxide-1H-benzo[c][1,2,6]thiadiazin-5-yloxy)-2′,2′-dimethyl-N-propylpropanamide], the Concentration in solution runs as follows: (Compound I in solution at 0.083 min) −0.5 ppm; (Compound I in solution at 2 min) 0.4 ppm; (Compound I in solution at 5 min) 1.4 ppm; (Compound I in solution at 10 min) 3.5 ppm; (Compound I in solution at 25 min) 8.3 ppm; (Compound I in solution at 50 min) 14.5 ppm. Under “Compound I in solution at 100 min”, this compound registered a Concentration in solution of 20.9 ppm.
